Experimental data taken from patent publication US10154992B2, “Compounds and methods for treating HIV infection” (THE REGENTS OF THE UNIVERSITY OF CALIFORNIA, priority 2016, dated 2018).

Test system: not listed separately
Assay: MTT cell viability run in parallel with the Tat-hybrid assay
Assay type: cell-based
Conditions: human, Tat-hybrid reporter cell lines (HeLa); Table 5; read-out: Tat hybrid TC50
Procedure: (§1) Cells were counted and plated into white 384-well or 96-well cell-culture treated assay plates and compounds were added. After 48 hours, the cells were prepared for luminescence assays that were performed on a plate reader (Tecan Evolution or MD Analyst). The cytotoxicity of each compound was determined in parallel via MTT-based cell viability assays.
(§2) Tat hybrid reporter assay. […] Previously characterized thienopyridines and diaminoacridine were used as controls. Cells were counted and plated into white 384-well cell-culture treated assay plates and compounds were added. After 48 hours, the cells were prepared for lumincescence assays that were performed on a plate reader (Tecan Evolution or MD Analyst). The cytotoxicity of each compound was determined in parallel via MTT-based cell viability assays. […]

Row | Structure (SMILES) | CC50 at 48 h [µM]
1 | Cn1cc(CC(=O)N2CCN(c3cncc4sc(C(N)=O)c(N)c34)CC2)c2ccccc21 | < 40
2 | NC(=O)c1sc2cncc(N3CCN(c4ccccc4O)CC3)c2c1N | < 40
3 | CC(C)c1n[nH]c2c1CN(c1cncc3sc(C(N)=O)c(N)c13)CC2 | < 40
4 | NC(=O)c1sc2cncc(N3CCCC(c4nc5ccccc5o4)C3)c2c1N (centres unmarked) | < 40
5 | NC(=O)c1sc2cncc(-c3ccncc3)c2c1N | > 40
6 | CN(C=O)c1ccc(C(=O)N2CCN(c3cncc4sc(C(N)=O)c(N)c34)CC2)cc1 | < 40
7 | Cc1ccc(C(=O)N2CCN(c3cncc4sc(C(N)=O)c(N)c34)CC2)cn1 | < 40
8 | COc1ccc(C(=O)N2CCN(c3cncc4sc(C(N)=O)c(N)c34)CC2)cc1F | < 40
9 | NC(=O)c1sc2cncc(-c3cncc4ccccc34)c2c1N | > 40
10 | NC(=O)c1sc2cncc(-c3cccc(-c4ccccc4)c3)c2c1N | < 40
11 | CC(=O)N1CCN(c2cncc3sc(C(N)=O)cc23)CC1 | > 40
12 | CN1CCN(c2cncc3sc(C(N)=O)c(N)c23)CC1 | < 40
13 | CS(=O)(=O)c1ccc(C(=O)N2CCN(c3cncc4sc(C(N)=O)c(N)c34)CC2)cc1 | < 40
14 | Cc1noc(C)c1C(=O)N1CCN(c2cncc3sc(C(N)=O)c(N)c23)CC1 | < 40

Test system: Tat-hybrid reporter cell lines (HeLa)
Assay: as above
Assay type: cell-based
Conditions: Table 6; at 50,000 nM
Procedure: as §1, §2

Row | Structure (SMILES) | Tat hybrid cell viability at 50,000 nM
15 | C=CCN(CC=C)C(=O)c1sc2nc(C)c(Cl)c(C)c2c1N | X (X = >60%)
16 | COc1ccc(C(=O)c2sc3nc(C)c(C)c(C)c3c2N)cc1OC | X (X = >60%)
17 | Cc1cc(C)c2c(N)c(C(=O)NCC(=O)O)sc2n1 | X (X = >60%)
18 | NC(=O)c1sc2nc(C34CC5CC(CC(C5)C3)C4)ccc2c1N | X (X = >60%)
19 | NC(=O)c1sc2nc3c(cc2c1N)C(=O)CCC3 | X (X = >60%)
20 | NC(=O)c1sc2[nH]c(=O)c(C(=O)O)cc2c1N | X (X = >60%)
21 | NC(=O)c1sc2nc(-c3ccc4c(c3)OCCO4)cc(C(F)(F)F)c2c1N | X (X = >60%)
22 | Cc1nc2sc(C(=O)c3ccccc3)c(N)c2c(C)c1C | X (X = >60%)
23 | NC(=O)c1sc2nc(-c3ccccc3)ccc2c1N | X (X = >60%)
24 | CN1CCc2nc3sc(C(N)=O)c(N)c3cc2C1 | X (X = >60%)
25 | Cc1cc(NC(=O)c2sc3nc(C)c(C)c(C)c3c2N)no1 | X (X = >60%)
26 | NC(=O)c1sc2nc3c(cc2c1N)CCCC3 | X (X = >60%)
27 | Cc1nc2sc(C(=O)c3ccc(Cl)cc3)c(N)c2c(C)c1C | X (X = >60%)
28 | COCc1cc(C)nc2sc(C(=O)Nc3ccc(C(C)=O)cc3)c(N)c12 | X (X = >60%)
29 | CN(C)c1ccnc2sc(C(=O)NCc3ccccc3)c(N)c12 | Y (Y = 30-60%)
30 | NC(=O)c1sc2nc(C3CC3)cc(-c3ccc(Cl)cc3)c2c1N | Y (Y = 30-60%)
31 | NC(=O)c1sc2nc(-c3ccccc3)cc(-c3ccccc3)c2c1N | Tat hybrid % inhibition at 5,000 nM: Z Tat hybrid cell viability at 50,000 nM: Z U1% inhibition at 10,000 nm: Z (Z = <30%)
32 | Cc1ccc(-c2cc(-c3ccc(Cl)cc3)c3c(N)c(C(N)=O)sc3n2)cc1 | Tat hybrid % inhibition at 5,000 nM: Z Tat hybrid cell viability at 50,000 nM: Z U1% inhibition at 10,000 nm: Z (Z = <30%)
33 | Cc1ccc2nc3sc(C(N)=O)c(N)c3cc2c1 | X (X = >60%)
34 | CCc1ccc2nc3sc(C(N)=O)c(N)c3cc2c1 | X (X = >60%)
35 | COc1ccc(-c2c(C(=O)Nc3ccccc3)c(C)nc3sc(C(N)=O)c(N)c23)cc1 | X (X = >60%)
36 | Cc1cc(C)c2cc3c(N)c(C(N)=O)sc3nc2c1 | Z (Z = <30%)

Row | Structure (SMILES) | Tat hybrid cell viability at 50,000 nM
37 | NC(=O)c1sc2nc(C(F)F)cc(-c3ccco3)c2c1N | Y (Y = 30-60%)
38 | NC(=O)c1sc2nc3c(cc2c1N)CCCCC3 | X (X = >60%)
39 | NC(=O)c1sc2nc3c(c(-c4cccnc4)c2c1N)CCC3 | Z (Z = <30%)
40 | Cc1cc(C)c2nc3sc(C(N)=O)c(N)c3cc2c1 | X (X = >60%)
41 | COc1ccc2cc3c(N)c(C(N)=O)sc3nc2c1 | Y (Y = 30-60%)
42 | COc1ccc2nc3sc(C(N)=O)c(N)c3cc2c1 | X (X = >60%)
43 | COc1cc2cc3c(N)c(C(N)=O)sc3nc2cc1OC | X (X = >60%)
44 | CCc1nc2sc(C(N)=O)c(N)c2cc1C | X (X = >60%)
45 | CCN(CC)C(=O)c1sc2nc(C)cc(C)c2c1N | Y (Y = 30-60%)
46 | NC(=O)c1sc2nc3c(cc2c1N)CCC3 | X (X = >60%)
47 | N#Cc1cc2c(N)c(C(N)=O)sc2nc1N | Z (Z = <30%)
48 | Cc1cc2cc3c(N)c(C(N)=O)sc3nc2cc1C | X (X = >60%)
49 | Cc1ccc2cc3c(N)c(C(N)=O)sc3nc2c1C | X (X = >60%)
50 | Cc1ccc(-c2cc(C(F)F)nc3sc(C(N)=O)c(N)c23)cc1 | X (X = >60%)
51 | COc1ccc(NC(=O)c2sc3nc(N)c(C#N)c(-c4cccs4)c3c2N)cc1 | X (X = >60%)
52 | CCOc1ccc2nc3sc(C(N)=O)c(N)c3cc2c1 | X (X = >60%)
53 | COC(=O)c1sc2nc(C)c(C)c(C)c2c1N | Y (Y = 30-60%)
54 | CC(=O)C1=C(C)Nc2sc(C(N)=O)c(N)c2C1c1cccnc1 (centres unmarked) | X (X = >60%)
55 | COCc1cc(C)nc2sc(C(=O)OC)c(N)c12 | X (X = >60%)
56 | NC(=O)c1sc2nc(-c3cccs3)cc(C(F)(F)F)c2c1N | Y (Y = 30-60%)
57 | NC(=O)c1sc2nc(C3CC3)cc(-c3ccccc3)c2c1N | X (X = >60%)
58 | COc1ccc(-c2c(C#N)c(N)nc3sc(C(N)=O)c(N)c23)cc1OC | Y (Y = 30-60%)

Row | Structure (SMILES) | Tat hybrid cell viability at 50,000 nM
59 | COc1ccc(-c2c3c(nc4sc(C(N)=O)c(N)c24)CCCC3)cc1 | X (X = >60%)
60 | NC(=O)c1sc2nc(-c3ccccc3)cc(C(F)(F)F)c2c1N | X (X = >60%)
61 | N#Cc1c(N)nc2sc(C(N)=O)c(N)c2c1-c1ccc(Br)cc1 | X (X = >60%)
62 | COCc1cc(C)c2c(N)c(C(N)=O)sc2n1 | Y (Y = 30-60%)
63 | N#Cc1c(N)nc2sc(C(=O)Nc3ccc(Cl)cc3)c(N)c2c1-c1cccs1 | X (X = >60%)
64 | COc1ccc(-c2cc(-c3ccc(Cl)cc3)c3c(N)c(C(N)=O)sc3n2)cc1 | X (X = >60%)
65 | N#Cc1c(N)nc2sc(C(=O)Nc3ccc(Br)cc3)c(N)c2c1-c1cccs1 | X (X = >60%)
66 | COCc1cc(C)nc2sc(C(=O)c3ccc(Cl)cc3)c(N)c12 | X (X = >60%)
67 | COCc1cc(C)nc2sc(C(=O)Nc3ccc(NC(C)=O)cc3)c(N)c12 | X (X = >60%)
68 | NC(=O)c1sc2nc(C(F)F)cc(-c3ccccc3)c2c1N | X (X = >60%)
69 | COCc1cc(C)nc2sc(C(=O)N3CCOCC3)c(N)c12 | Y (Y = 30-60%)
70 | NC(=O)c1sc2nc(-c3ccc(Cl)cc3)cc(-c3ccc(Cl)cc3)c2c1N | X (X = >60%)
71 | NC(=O)c1sc2nc(-c3ccc(F)cc3)cc(-c3ccccc3)c2c1N | X (X = >60%)
72 | COCc1cc(C)nc2sc(C(=O)Nc3cc(C)ccc3F)c(N)c12 | X (X = >60%)
73 | CCc1nnc(NC(=O)c2sc3nc(C)cc(COC)c3c2N)s1 | X (X = >60%)
74 | NNC(=O)c1sc2ncccc2c1N | X (X = >60%)
75 | N#Cc1c(N)nc2sc(C(=O)Nc3ccccc3)c(N)c2c1-c1cccs1 | X (X = >60%)
76 | CC(=O)C1=C(C)Nc2sc(C(N)=O)c(N)c2C1c1ccccc1 (centres unmarked) | Y (Y = 30-60%)
77 | Cc1ccc2c(N)c(C(N)=O)sc2n1 [drawing 227] | X (X = >60%)
78 | COc1ccc(-c2cc(-c3ccccc3)nc3sc(C(N)=O)c(N)c23)cc1 [drawing 256] | X (X = >60%)
79 | COc1ccc(-c2cc(-c3ccccc3)nc3sc(C(N)=O)c(N)c23)cc1 [drawing 268] | Y (Y = 30-60%)
80 | Cc1ccc2c(N)c(C(N)=O)sc2n1 [drawing 277] | X (X = >60%)
